Test results: US10905120B2, “ABA receptor agonists that modulate transpiration” (The Regents of the University of California, priority 2016, dated 2021)
Values after ≈ are worked out from the molar mass of the structure shown. Read-outs that look alike come from different tables or passages of the source.

Key:
[1] = target: T1, PYR1 (Arabidopsis thaliana, UniProt O49686); assay: PP2C inhibition assay, recombinant PYR1 receptor; type: biochemical
T1 sequence (O49686 1-191): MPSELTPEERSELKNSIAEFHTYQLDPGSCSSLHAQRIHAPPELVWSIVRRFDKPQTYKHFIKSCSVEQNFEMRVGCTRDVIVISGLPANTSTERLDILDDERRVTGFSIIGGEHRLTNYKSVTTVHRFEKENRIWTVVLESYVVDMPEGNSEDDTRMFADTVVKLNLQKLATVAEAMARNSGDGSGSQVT
T1 sequence (Q9CAJ0 23-511 partner): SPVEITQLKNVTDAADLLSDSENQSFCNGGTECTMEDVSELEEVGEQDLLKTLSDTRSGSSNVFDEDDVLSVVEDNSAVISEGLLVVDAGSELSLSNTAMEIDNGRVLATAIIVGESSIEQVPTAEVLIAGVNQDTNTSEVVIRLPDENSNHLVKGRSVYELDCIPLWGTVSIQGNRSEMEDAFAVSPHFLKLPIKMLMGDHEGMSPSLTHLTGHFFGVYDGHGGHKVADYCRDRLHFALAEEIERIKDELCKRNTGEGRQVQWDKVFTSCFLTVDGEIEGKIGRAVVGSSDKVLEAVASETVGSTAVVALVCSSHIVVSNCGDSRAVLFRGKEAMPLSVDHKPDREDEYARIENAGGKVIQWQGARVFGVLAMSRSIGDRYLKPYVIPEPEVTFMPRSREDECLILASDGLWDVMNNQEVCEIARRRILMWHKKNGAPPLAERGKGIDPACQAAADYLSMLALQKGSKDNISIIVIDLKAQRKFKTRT
Method: (§1) Reactions were started by adding 40 μL of a reaction solution containing 25 mM 4-nitrophenyl phosphate in assay buffer, after which absorbance measurements were immediately collected using a 405 nm on Wallac plate reader. Reactions contained 100 nM PP2C and 200 nM PYR/PYL proteins. […] The dose response data was fitted to a log (inhibitor) vs response-(variable slope) model using non-linear regression to infer the IC50 values using Graph Pad Prism 6.0.

[2] = target: T2, PYL2 (Arabidopsis thaliana, UniProt O80992); assay: PP2C inhibition assay, recombinant PYL2 receptor; type: biochemical
T2 sequence (O80992 1-190): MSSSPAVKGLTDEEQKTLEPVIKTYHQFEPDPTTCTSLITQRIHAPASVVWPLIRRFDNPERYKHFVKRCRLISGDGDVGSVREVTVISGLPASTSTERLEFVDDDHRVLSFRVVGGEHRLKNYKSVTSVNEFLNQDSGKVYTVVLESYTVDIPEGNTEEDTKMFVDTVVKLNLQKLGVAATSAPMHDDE
T2 sequence (Q9CAJ0 23-511 partner): T1 sequence (Q9CAJ0 23-511 partner)
Method: as §1

[3] = system: Arabidopsis thaliana seeds; assay: Germination assay; type: in vivo; conditions: Minimal Inhibitory Concentration, 3 d in darkness after 4 d stratification
Method: Germination experiments were performed with Arabidopsis thaliana seeds of wildtype Col0, Ler, or mutant backgrounds.
Seeds were sterilized by 30 sec incubation in 70% ethanol solution followed by a 5 min […] (while vigorously shaking) in a bleach-Tween solution. Afterwards, the sterilizing solutions were removed, and five washes were performed with sterile distilled water. To enhance complete removal of the solutions between the different steps, short centrifuge spins were performed. Finally, the now surface-sterilized seeds were re-suspended in an aseptic 0.1% agar solution to simplify distribution over multiwall plates. One drop of the solution contained on average 20-30 seeds.
In the multiwell plates, seeds were plated onto 0.7% agar Murashige amd Skoog (MS) plant growth medium containing one-half MS salts and 0.5% sucrose containing different concentrations of ABA, quinabactin, or the compound of interest. After 4 d of stratification at 4° C., the plates were transferred to a growth chamber in darkness and allowed to germinate for 3 d before germination was evaluated. The results are shown above in Table 1 and FIGS. 3A and 3B.

[4] = system: adult Arabidopsis plants; assay: Thermal imaging assay of sprayed adult plants; type: in vivo; conditions: sprayed at 50 uM dose on adult Arabidopsis plants; compared with quinabactin and ABA at the same dose
Text: Molecules that elicit ABA-like effects in vivo typically close guard cells, which arrests transpirational water loss, resulting in less efficient cooling of the leaf surface and a concomitant increase in leaf surface temperature. Infrared thermography has recently emerged as an attractive, noninvasive technique to evaluate plant leaf surface temperature.
For the adult plants used for thermal imaging, seeds were sterilized as described in Example 3. Afterwards, the seeds were spread onto 0.7% agar MS plant growth medium containing one-half MS salts and 0.5% sucrose. After 4 d of stratification at 4° C., these plates were transferred to a growth chamber in light and allowed to germinate and grow for 7 d. The seedlings then were transferred into soil, and plants of 3-4 wk old were used for thermal imaging. Before thermal imaging, topical spraying of the plants was performed with a water solution containing an active agent (50 μM ABA, quinabactin, or a test compound of interest), 0.5% DMSO, and 0.02% polyalkyleneoxide modified heptamethyltrisiloxane surfactant (Silwet-77). Thermal images were collected just before spraying, 24 h after treatment, and 48 h after treatment. Treated plants were compared to mock-treated plants that had been sprayed with water containing 0.5% DMSO and 0.02% Silwet-77.
Thermal images were collected at 16 h after treatment. Thermal images were quantified using the Flir tools software version 5.2.15161.1001 by measuring the average leaf temperature of 5-6 leaves per plant. Average temperatures were calculated for 10 replicate plants (in 5 pots) per treatment. Statistical comparisons between the treated and the mock-treated plants were performed using pairwise t-tests. In the graphs represented in FIG. 1B, error bars represent the standard error of mean, asterisks symbols indicate statistical significance, and * indicates p≤0.05, ** for p≤0.01, *** for p≤0.001.

[5] = target: T3, PYR1^I110V mutant (Arabidopsis thaliana, UniProt O49686, I110V); assay: Phosphatase inhibition assay with PYR1 I110V mutant; type: biochemical
T3 construct: made in house
T3 sequence (O49686 whole entry I110V, one chain of several): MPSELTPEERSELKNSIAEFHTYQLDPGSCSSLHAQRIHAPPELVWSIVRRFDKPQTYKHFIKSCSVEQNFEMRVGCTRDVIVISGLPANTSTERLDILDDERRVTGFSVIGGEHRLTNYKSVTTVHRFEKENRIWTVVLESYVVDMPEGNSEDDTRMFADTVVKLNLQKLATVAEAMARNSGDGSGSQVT
Method: (§2) Without intending to be bound by theory, subtle changes in the binding pockets of PYR1/PYL2 proteins can dictate the orientation of pyrabactin and contribute towards its selectivity towards PYR1 vs PYL2. […] Cyanabactin's activity was tested with the PYR1^I110V and the reciprocal PYL2^V114I mutants to provide possible insights into its selectivity for PYR1 vs PYL2.
(§3) Recombinant PYR1^I110V and PYL2^V114I proteins were prepared using a previously described protocol previously (Peterson Peterson, F. C. et al., “Structural Basis for Selective Activation of ABA Receptors,” Nat. Struct. Mol. Biol. 2010, 17 (99), 1109-1113) and tested in absorbance based phosphatase inhibition assay using p-nitrophenol phosphate as substrate as previously described.

[6] = target: T4, PYL2^V114I mutant (Arabidopsis thaliana, UniProt O80992, V114I); assay: Phosphatase inhibition assay with PYL2 V114I mutant; type: biochemical
T4 construct: made in house
T4 sequence (O80992 whole entry V114I, one chain of several): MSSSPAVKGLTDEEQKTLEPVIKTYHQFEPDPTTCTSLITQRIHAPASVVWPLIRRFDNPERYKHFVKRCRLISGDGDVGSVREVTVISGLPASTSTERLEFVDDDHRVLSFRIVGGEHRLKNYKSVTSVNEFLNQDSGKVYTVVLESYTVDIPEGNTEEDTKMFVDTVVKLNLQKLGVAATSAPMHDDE
Method: as §2, §3

[7] = target: T3, PYR1^I110V mutant; conditions: cited from earlier work
[8] = target: T4, PYL2^V114I mutant; conditions: cited from earlier work
[9] = recombinant receptor 200 nM, PP2C 100 nM, 4-nitrophenyl phosphate substrate, absorbance 405 nm, read-out: IC50 PYR1
[10] = recombinant receptor 200 nM, PP2C 100 nM, 4-nitrophenyl phosphate substrate, absorbance 405 nm, read-out: IC50 PYL2
[11] = recombinant mutant receptor, p-nitrophenol phosphate substrate

| Structure (SMILES) | IC50 [1, 9] [nM] | IC50 [2, 10] [nM] | MIC (μM) Germination [3] [µM] | increase of leaf surface temperature [4] | fold less active in PYR1^I110V mutant as compared to WT PYR1 ([5]; ratio of IC50s) | IC50 [5, 11] [nM] | fold more active in PYL2^V114I mutant as compared to WT PYL2 ([6]; ratio of IC50s) [fold] | IC50 [6, 11] [nM] | IC50 [1] [nM] | IC50 [2] [nM] | responsiveness of PYR1^I110V mutant as compared to wild-type PYR1 [7] | responsiveness of PYL2^V114I mutant as compared to WT PYL2 [8] |
| --- | --- | --- | --- | --- | --- | --- | --- | --- | --- | --- | --- | --- |
| Cc1ccc(CS(=O)(=O)Nc2ccc(C#N)c(C3CC3)c2)cc1 [Ligand Q27, N-(4-Cyano-3-cyclopropylphenyl)-1-(4-methylphenyl)methanesulfonamide] | 87 | 3270 | 5 (≈ 1.63 µg/mL) | increase the leaf surface temperature significantly | approximately 9 fold | 787 | 3.3 | 981 |  |  |  |  |
| CC1=CC(=O)CC(C)(C)[C@@]1(O)/C=C/C(C)=C\C(=O)O [ABA, Abscisic acid, reference compound] |  |  | 1 (≈ 0.264 µg/mL) |  |  |  |  |  | 111 ± 3.8 | 39 ± 2.3 | retained responsiveness | retained responsiveness |
| O=S(=O)(NCc1ccccn1)c1ccc(Br)c2ccccc12 [pyrabactin] |  |  |  |  |  |  |  |  |  |  | dramatically loses pyrabactin responsiveness | gains pyrabactin responsiveness |
| CCOc1cc(NS(=O)(=O)Cc2ccc(C)cc2)ccc1C#N [Ligand Q26, N-(4-Cyano-3-ethoxyphenyl)-1-(4-methylphenyl)methanesulfonamide] | 112 ± 15 | 7460 ± 469 | 10 (≈ 3.3 µg/mL) | increase the leaf surface temperature significantly |  |  |  |  |  |  |  |  |
| CCCc1cc(NS(=O)(=O)Cc2ccc(C)cc2)ccc1C#N [Ligand Q31, N-(4-Cyano-3-propylphenyl)-1-(4-methylphenyl)methanesulfonamide] | 100 ± 0.4 | 2910 ± 270 | 10 (≈ 3.28 µg/mL) | to a lesser extent |  |  |  |  |  |  |  |  |

Further lines, with some results ahead:

| IC50 [1, 9] [nM] | IC50 [2, 10] [nM] | Structure (SMILES) | MIC (μM) Germination [3] [µM] | increase of leaf surface temperature [4] | fold less active in PYR1^I110V mutant as compared to WT PYR1 ([5]; ratio of IC50s) | IC50 [5, 11] [nM] | fold more active in PYL2^V114I mutant as compared to WT PYL2 ([6]; ratio of IC50s) [fold] | IC50 [6, 11] [nM] | IC50 [1] [nM] | IC50 [2] [nM] | responsiveness of PYR1^I110V mutant as compared to wild-type PYR1 [7] | responsiveness of PYL2^V114I mutant as compared to WT PYL2 [8] |
| --- | --- | --- | --- | --- | --- | --- | --- | --- | --- | --- | --- | --- |
| 48 ± 0.3 | 2700 ± 64 | CCc1cc(NS(=O)(=O)Cc2ccc(C)cc2)ccc1C#N [Ligand Q29, N-(4-Cyano-3-ethylphenyl)-1-(4-methylphenyl)methanesulfonamide] | 5 (≈ 1.57 µg/mL) | to a lesser extent |  |  |  |  |  |  |  |  |
| 72 ± 15 | 969 ± 77 | CCc1cc(NS(=O)(=O)Cc2ccc(C)cc2)cc(C)c1C#N [Ligand Q30, N-(4-Cyano-3-ethyl-5-methylphenyl)-1-(4-methylphenyl)methanesulfonamide] | 10 (≈ 3.28 µg/mL) | increase the leaf surface temperature significantly |  |  |  |  |  |  |  |  |
| 220 ± 18 | 1610 ± 23 | CCCc1cc(NS(=O)(=O)Cc2ccc(C)cc2)cc(C)c1C#N [Ligand Q32, N-(4-Cyano-3-methyl-5-propylphenyl)-1-(4-methylphenyl)methanesulfonamide] | 10 (≈ 3.42 µg/mL) | to a lesser extent |  |  |  |  |  |  |  |  |
